Assay results published in ChEMBL document CHEMBL3272262, “Basic derivatives of 6,7-dihydroindolo(1,7-ab)(1) benzazepine and 6H-indolo(7,1-cd)(1,5) benzoxazepine as potential antidepressant agents” (J Med Chem, 1976).
Values after ≈ are worked out from the molar mass of the structure shown.

Tests used:
Mus musculus [1] = experiment: Antidepressant activity in po dosed Swiss mouse assessed as reversal of reserpine-induced ptosis administered 1 hr prior to reserpine challenge; type: functional
Mus musculus [2] = experiment: Antidepressant activity in po dosed Swiss mouse assessed as reversal of reserpine-induced hypothermia measured over 5 hrs; type: functional
Ileum [3] = experiment: Antispasmodic activity in guinea pig ileum assessed as inhibition of acetylcholine-induced spasm; type: functional; conditions: Cavia porcellus, read-out: ED50 (the source's name)
Ileum [4] = experiment: Antispasmodic activity in guinea pig ileum assessed as inhibition of histamine-induced spasm; type: functional; conditions: Cavia porcellus, read-out: ED50 (the source's name)
[5] = Acute toxicity in po dosed Swiss mouse assessed as mortality after 7 days; type: organism-based; conditions: in vivo
Mus musculus [6] = experiment: Toxicity in po dosed Swiss mouse assessed as behavioral changes; type: organism-based; conditions: in vivo

| Compound | MED50 (Mus musculus [1]) | MED50 (Mus musculus [2]) | EC50 (Ileum [3]) | EC50 (Ileum [4]) | LD50 at 168 h [5] | Activity (Mus musculus [6]) |
| --- | --- | --- | --- | --- | --- | --- |
| CN(C)CCc1cc2cccc3c2n1-c1ccccc1OC3.Cl | 3 mg/kg | 50 mg/kg | 10 µg/mL | 1 µg/mL | 195 mg/kg | Non-toxic |
| CNCCc1cc2cccc3c2n1-c1ccccc1CC3.Cl | 1 mg/kg | 2.5 mg/kg | 4 µg/mL | 0.6 µg/mL | 410 mg/kg | Non-toxic |
| CN(C)CCc1cc2cccc3c2n1-c1ccccc1CC3 | 2 mg/kg | 5 mg/kg | 1 µg/mL (≈ 3.44 µM) | 0.2 µg/mL (≈ 0.689 µM) | 420 mg/kg | Non-toxic |
| CN(C)Cc1cc2cccc3c2n1-c1ccccc1CC3 | >50 mg/kg | >50 mg/kg |  |  | 210 mg/kg | Non-toxic |
| Cc1c(CN(C)C)c2cccc3c2n1-c1ccccc1CC3 | >50 mg/kg | >50 mg/kg |  |  | 450 mg/kg | Non-toxic |
| CNCCc1c(C)c2cccc3c2n1-c1ccccc1CC3.Cl | 2.5 mg/kg | >50 mg/kg | 6 µg/mL | 5 µg/mL | 390 mg/kg | Non-toxic |
| Cc1c(CCN(C)C)n2c3c(cccc13)CCc1ccccc1-2 | 7.5 mg/kg | >50 mg/kg | > 10 µg/mL | > 10 µg/mL | 195 mg/kg | Non-toxic |
| CN(C)Cc1c(-c2ccccc2)n2c3c(cccc13)CCc1ccccc1-2 | >50 mg/kg | >50 mg/kg |  |  | 1600 mg/kg | Non-toxic |
| CN(C)Cc1cn2c3c(cccc13)CCc1ccccc1-2.Cl | >50 mg/kg | >50 mg/kg |  |  | 170 mg/kg | Non-toxic |
| CN(CCc1cc2cccc3c2n1-c1ccccc1CC3)Cc1ccccc1.Cl [AZIPRAMINE HYDROCHLORIDE] | 3.5 mg/kg | 5 mg/kg | > 5 µg/mL | > 5 µg/mL | > 4000 mg/kg | Non-toxic |
| Cc1c(CCN(C)C)n2c3c(cccc13)COc1ccccc1-2.Cl | 10 mg/kg | >50 mg/kg |  |  | 310 mg/kg | Non-toxic |
| Cc1c(CCN(C)Cc2ccccc2)n2c3c(cccc13)CCc1ccccc1-2.Cl | >50 mg/kg | >50 mg/kg |  |  | > 4000 mg/kg | Non-toxic |
| Cl.c1ccc(CN(CCc2cc3cccc4c3n2-c2ccccc2CC4)Cc2ccccc2)cc1 | 50 mg/kg | > 50 mg/kg | > 10 µg/mL | > 10 µg/mL | 1400 mg/kg | Non-toxic |
| CN(C)CCc1c(-c2ccccc2)c2cccc3c2n1-c1ccccc1CC3 | >50 mg/kg | >50 mg/kg |  |  | 1900 mg/kg | Non-toxic |
| CN(C)CCCN1c2ccccc2CCc2ccccc21 [IMIPRAMINE] | 2.5 mg/kg | 2.5 mg/kg | 0.3 µg/mL (≈ 1.07 µM) | 0.006 µg/mL (≈ 0.0214 µM) |  |  |
